From patent US20070015733A1, “Aryl Phosphate Derivatives of d4T having Activity Against Resistant HIV Strains” (Parker Hughes Institute, priority 1998, published 2007)
Where two headings read alike, the source gives them in different places.

Columns and labels:
[1] = tested on: zidovudine-resistant primary clinical HIV-1 isolates; test: p24 drug susceptibility assay, NRTI-/zidovudine-resistant primary clinical HIV-1 isolates in PBMC; type: cell-based
Method: Viruses. […] The HIV-1 strains HTLVIIIB (wildtype RT, NRTI-sensitive, NNRTI-sensitive), A17 (Y181 C mutant, NNRTI-resistant), A17-variant (Y181C+K103N mutant, NNRTI-resistant), and RT-MDR (M41 L, V106N, T215Y; NRTI-resistant, NNRTI-resistant) were also obtained from the AIDS Research and Reference Reagent Program, NIAID.
Antiviral susceptibility assays. Phenotypic drug susceptibility studies of HIV-1 isolates and strains were performed by measuring the production of the p24 gag protein in peripheral blood mononuclear cells (PBMC) from seronegative healthy volunteers in the presence of increasing concentrations of the anti-HIV agent using the quantitative Coulter HIV-1 p24 antigen ezyme immunoassay (EIA) and HIV-1 p24 Antigen Kinetic Standard (Beckman Coulter), as previously described (Uckun, 1998, Antimicrobial Agents and Chemotherapy 37(4): 835-38). Informed consent was obtained from the blood donors according to DHHS guidelines using consent forms approved by the Institutional Review Board. In brief, PBMC were cultured for 72 h in RPMI 1640 medium (Gibco) supplemented with 20% (vol/vol) heat-inactivated fetal bovine serum, 5% human interleukin-2 (Zeptometrix), 2 mM L-glutamine, 25 mM HEPES, 2 g/L NaHCO3, 100 U/ml penicillin/streptomycin (Gibco), 50 μg/ml gentamicin (Gibco), and 5 μg/ml phytohemagglutinin-P (PHA-P) (Sigma) for 24-72 hours prior to exposure to HIV at a multiplicity of infection of 0.001-0.1 during a 1-h adsorbtion period at 37±1° C. in a humidified 5-7% CO2 atmosphere. Subsequently, cells were cultured in 96-well microtiter plates (100 μl/well; 2×10^6 cells/ml, triplicate wells) in the presence of the anti-HIV agents at 6-7 different concentrations ranging from 0.0001 μM to 100 μM, and 25 μL aliquots of culture supernatants were removed from the wells on day 6 after infection for p24 EIA, as previously described (Uckun, 1998, Antimicrobial Agents and Chemotherapy, 37(4):835-38). Controls included uninfected and untreated cells (background control) and infected but untreated (virus control) cells. The p24 EIA utilizes a murine monoclonal antibody to HIV core protein used to coat microwell strips to which the antigen present in the test culture supernatant samples binds. Percent inhibition of viral replication was calculated by comparing the p24 values from the test substance-treated infected cells with p24 values from untreated infected cells (i.e., virus controls). The IC50 values were determined using the Statview statistics program (SAS Institute, Inc.). In parallel, the effects of various treatments on cell viability were also examined as previously described (Uckun, 1998, Antimicrobial Agents and Chemotherapy, 42:383-388). In brief, noninfected PBMC were treated with each compound for 5 days under identical experimental conditions. A microculture tetrazolium assay (MTA) was performed to quantitate cellular proliferation (Uckun, 1998, Antimicrobial Agents and Chemotherapy, 42:383-388).
Phenotypic drug susceptibility studies of HIV-1 isolates and strains were performed by measuring the production of the p24 gag protein in peripheral blood mononuclear cells (PBMC) from seronegative healthy volunteers in the presence of increasing concentrations of the anti-HIV agent using the quantitative Coulter HIV-1 p24 antigen enzyme immunoassay (EIA) and HIV-1 p24 Antigen Kinetic Standard (Beckman Coulter), as previously described. StatView was used in the calculation of the IC50 values from each set of triplicate wells using the linearized form of an exponential equation (lnY=lnb0+b1X; where Y=% inhibition, X=drug concentration). The inhibition constants were log10 transformed to homogenize the variances within each group. […] P-values below 0.05 were deemed significant (JMP Software, SAS).

[2] = tested on: NRTI-resistant recombinant HIV-1 isolates; settings: cited from earlier work
HIV-2 (Strain: CBL-20) = test: Inhibition of HIV-2 replication in PBMNC (RT activity); type: cell-based
Method: (P-AZT) and with AZT. The incubation and analysis methods used were as described above for Example 3.
Cellular Assays of Anti-HIV Activity and Cytotoxicity. […] Percent viral inhibition was calculated by comparing the RT activity values from the test substance-treated infected cells with RT values from untreated infected cells (i.e., virus controls).

[3] = tested on: NRTI-resistant recombinant HIV-1 isolates; test: p24 assay, multi-NRTI-resistant recombinant HIV-1 clones; type: cell-based
[4] = Pharmacokinetics after intravenous or oral administration; type: in vivo, mice; settings: intravenous administration

SMILES: Cc1cn([C@H]2C[C@H](N=[N+]=[N-])[C@@H](CO)O2)c(=O)[nH]c1=O [AZT, 3′-azido-3′-deoxythymidine]
- IC50 ([1]; Human immunodeficiency virus 1, PBMC, isolate 92BR019 (D67N, L214F, T215D, K219Q), PBMC): 0.2 µM
- IC50 ([1]; Human immunodeficiency virus 1, PBMC, isolate C140 (M41L, M184V, T215Y), PBMC): 0.1 µM
- IC50 ([1]; Human immunodeficiency virus 1, PBMC, isolate C140, PBMC, p24): 0.1 µM
- IC50 ([1]; Human immunodeficiency virus 1, PBMC, isolate C467-4 (K20R, D67N, K70R, Y188L, T215F, K219Q), PBMC): 3.2 µM
- IC50 ([1]; Human immunodeficiency virus 1, PBMC, isolate G190-6, PBMC, p24): > 3.2 µM
- IC50 ([1]; Human immunodeficiency virus 1, PBMC, isolate G691-2 (mutations N.D.), PBMC): 2.6 µM
- IC50 ([1]; Human immunodeficiency virus 1, PBMC, isolate G704-2, PBMC, p24): 1.8 µM
- IC50 ([1]; Human immunodeficiency virus 1, PBMC, isolate G780-1 (M41L, D67N, K70R, T215F, K219Q), PBMC): > 3.2 µM
- IC50 ([1]; Human immunodeficiency virus 1, PBMC, isolate G780-1, PBMC, p24): > 3.2 µM
- IC50 ([1]; Human immunodeficiency virus 1, PBMC, isolate G890-1 (K20R, M41L, D67N, T69N, K70R, L210W, T215Y), PBMC): > 3.2 µM
- IC50 ([1]; Human immunodeficiency virus 1, PBMC, isolate G890-1, PBMC, p24): > 3.2 µM
- IC50 ([1]; Human immunodeficiency virus 1, PBMC, isolate P798-1 (M41L, T215Y), PBMC): 1.8 µM
- IC50 ([1]; Human immunodeficiency virus 1, PBMC, isolate Q252-2 (M41L, L210W, T215Y), PBMC): 1.7 µM
- IC50 ([1]; Human immunodeficiency virus 1, PBMC, isolate R416-10 (M41L, T215Y), PBMC): 0.3 µM
- IC50 ([1]; Human immunodeficiency virus 1, PBMC, isolate S159-2 (M41L, K103N, T215Y), PBMC): 0.7 µM
- IC50 ([1]; Human immunodeficiency virus 1, PBMC, isolate S762-4 (M41L, T215Y), PBMC): 1.2 µM
- IC50 ([1]; Human immunodeficiency virus 1, PBMC, isolate T156-3 (M41L, E44D, D67N, T69D, L210W, T215Y), PBMC): > 3.2 µM
- IC50 ([1]; Human immunodeficiency virus 1, PBMC, isolate T156-3, PBMC, p24): > 3.2 µM
- IC50 ([1]; Human immunodeficiency virus 1, PBMC, isolate X165-8 (D67N, T69N, K70R, K103N, Y181C, T215F, K219E), PBMC): 0.9 µM
- IC50 ([1]; Human immunodeficiency virus 1, PBMC, isolate X165-9 (K20R, D67N, K103N, T215Y), PBMC): 0.9 µM
- IC50 ([1]; Human immunodeficiency virus 1, PBMC, isolate X267-1 (L74V), PBMC, p24): 0.6 µM
- IC50 ([1]; Human immunodeficiency virus 1, PBMC, isolate X267-1 (M41L, L74V, L210W, T215Y), PBMC): 0.6 µM
- IC50 ([1]; Human immunodeficiency virus 1, PBMC, isolate X267-2 (M41L, T215Y), PBMC): 0.4 µM
- IC50 ([1]; Human immunodeficiency virus 1, PBMC, isolate X267-5 (M41L, F116S, T215Y), PBMC): 0.6 µM
- IC50 ([1]; Human immunodeficiency virus 1, PBMC, isolate Y270-7 (M41W, Y188L, T215N), PBMC): 1.5 µM
- IC50 ([1]; Human immunodeficiency virus 1, PBMC, read-out: IC50, μM, Mean ± SE, mean over 20 zidovudine-resistant primary clinical isolates): 1.6 ± 0.5 µM
- IC50 ([1]; Human immunodeficiency virus 1, PBMC, read-out: mean IC50 value, NRTI-resistant isolates with 5 thymidine analog mutations (Group 1 in Table 19)): 2.6 µM
- IC50 ([1]; Human immunodeficiency virus 1, PBMC, read-out: mean IC50 value, isolates with M184V plus multiple thymidine analog mutations (Group 2 in Table 19)): 0.134 ± 0.0188 µM
- IC50 ([1]; isolate G704-2 (M41L, D67N, K70R, L210W, T215Y), PBMC, listed as zidovudine): > 10 µM
- IC50 ([1]; isolate G910-6 (M41L, D67N, K70R, T215Y, K219Q), PBMC, listed as ZDV(AZT)): > 3.2 µM
- IC50 ([1]; isolate G910-6 (M41L, D67N, K70R, T215Y, K219Q), PBMC, listed as zidovudine): > 10 µM
- Fold decreased susceptibility ([2]; recombinant clone 1617-1): 261 fold
- Fold decreased susceptibility ([2]; recombinant clone 4755-5): 61 fold
- Fold decreased susceptibility ([2]; recombinant clone 7295-1): 9.9 fold
- Fold decreased susceptibility ([2]; recombinant clone 7324-1): 923 fold
- Fold decreased susceptibility ([2]; recombinant clone 52534-2): 719 fold
- Fold decreased susceptibility ([2]; recombinant clone 56252-1): >1000 fold
- IC50 (HIV-2 (Strain: CBL-20); Human immunodeficiency virus 2, Table 3, unit inferred, read-out: HIV-2 IC50 [RT]): 2400 nM
- antiviral activity against HIV-2 (in words) (HIV-2 (Strain: CBL-20); PBMNC): not effective
- IC50 ([3]; Human immunodeficiency virus 1, read-out: IC50 (nM), p24, recombinant clone 1617-1 (151 complex)): 320 nM
- IC50 ([3]; Human immunodeficiency virus 1, read-out: IC50 (nM), p24, recombinant clone 4755-5): 165 nM
- IC50 ([3]; Human immunodeficiency virus 1, read-out: IC50 (nM), p24, recombinant clone 7295-1): 137 nM
- IC50 ([3]; Human immunodeficiency virus 1, read-out: IC50 (nM), p24, recombinant clone 7324-1): > 1000 nM
- IC50 ([3]; Human immunodeficiency virus 1, read-out: IC50 (nM), p24, recombinant clone 52252-1 in Table 18, 56252-1 in Tables 19 and 20 (K65R, 151 complex)): > 1000 nM
- IC50 ([3]; Human immunodeficiency virus 1, read-out: IC50 (nM), p24, recombinant clone printed 52534-1 in Table 18, 52534-2 in Tables 19 and 20 (69 insertion complex)): > 1000 nM
- IC50 ([3]; Human immunodeficiency virus 1, read-out: mean IC50 value, recombinant clones with 151 complex or 69 insertion complex (Group 3+Group 4)): 773 ± 227 nM

SMILES: Cc1cn([C@H]2C=C[C@@H](CO)O2)c(=O)[nH]c1=O [d4T, 2′,3′-didehydro-2′,3′-dideoxythymidine]
- elimination half-life (t1/2) of the administered substance [4]: 30.3 min
- Fold decreased susceptibility ([2]; recombinant clone 1617-1): 11 fold
- Fold decreased susceptibility ([2]; recombinant clone 4755-5): 3.9 fold
- Fold decreased susceptibility ([2]; recombinant clone 7295-1): 1.9 fold
- Fold decreased susceptibility ([2]; recombinant clone 7324-1): 2.6 fold
- Fold decreased susceptibility ([2]; recombinant clone 52534-2): 9 fold
- Fold decreased susceptibility ([2]; recombinant clone 56252-1): 20 fold
